Experimental data from patent publication US20100324285A1, “ANTIINFLAMMATORY AGENT COMPRISING 2-AMINOPHENOL OR DERIVATIVE THEREOF AS ACTIVE INGREDIENT” (priority 2006, published 2010).

Tests used:
RBL-2H3 = assay: Degranulation reaction of basocyte (β-hexosaminidase release); type: cell-based, rat
Protocol: Degranulation rate (%) and inhibition rate of degranulation (%) were calculated based on the measurements of β-hexosaminidase activity in the granules released from the cells by degranulation reaction.
Rat cancer cells from basocyte RBL-2H3(catalognumber“JCRB0023”, commercialized by Health Science Research Resources Bank of Japan Health Sciences Foundation), known to be degranulated by cross-linkage of IgE, were used after cultured in a MEM medium (commercialized by Nissui Pharmaceutical Co., Ltd.) supplemented with 10% (v/v) FCS.
The above cells were recovered from a flask by conventional trypsin-EDTA treatment, then suspended in a MEM medium supplemented with 10% (v/v) FCS to give a cell concentration of 5×10^5 cells/ml. The suspension was inoculated to a 24-well microplate in a volume of 400 μl per well, cultured in a 5% (v/v) carbon dioxide incubator for 3 to 5 hours, then admixed with 0.625 μg/ml of anti dinitrophenol (hereinafter abbreviated as “DNP”) mouse IgE (commercialized by Sigma-Aldrich, Inc., diluted by MEM medium supplied with 10% (v/v) FCS) in a volume of 100 μl per well to sensitize the cells by IgE (a final concentration of the anti DNP-IgE was 0.125 μg/ml). After the cells were cultured in the 5% (v/v) carbon dioxide incubator overnight, the supernatant was removed by suction, and then each well was washed twice with Siraganian buffer (119 mM NaCl, 5 mM KCl, 0.4 mM MgCl2, 25 mM piperazine-N,N″-bis(2-ethane sulfonic acid) (PIPES), 40 mM NaOH, pH 7.2) by 500 μl per well. After admixed with Siraganian buffer containing 0.1% bovine serum albumin (BSA), 5.6 mM glucose and 1 mM CaCl2 (hereinafter described as “BSA-containing Siraganian buffer) in a volume of 160 μl per well, the microplate was warmed at 37° C. for 15 minutes. As test samples, 2-aminophenoxazine-3-one (questiomycin A), arbutin having skin-whitening effect and oxatomide used as therapeutic agents for allergic diseases (positive control) were diluted with BSA-containing Siraganian buffer to give the concentrations shown in Table 3, any of the test samples was added by 20 μl per well, then the microplate was warmed at 37° C. for 15 minutes (wells with the test samples). The well with any of the test samples was admixed with DNP-albumin (commercialized by Sigma-Aldrich, Inc.) diluted with BSA-containing Siraganian buffer to give a concentration of 50 μg/ml by 20 μl per well, and warmed at 37° C. for 15 minutes. After the 24-well microplate was cooled on ice for 10 minutes, the supernatant was collected and 100 μl thereof was injected into a 96-well microplate to measure the β-hexosaminidase activity in the supernatant. As negative control, BL-2H3 cells were cultured and treated in the same way as the wells admixed with the test samples except for that FCS-supplemented MEM medium containing no antibody was used, and the β-hexosaminidase activity in the supernatant was measured (the well without IgE sensitization). After the supernatants were removed from some of the wells without IgE sensitization, the wells were washed twice with BSA-containing Siraganian buffer and admixed with BSA-containing Siraganian buffer by 200 μl per well. The cells were broken by twice repeating freezing at −80° C. and thawing, whole medium containing the broken cells was collected, centrifuged at 1,500 rpm for 10 minutes, and then 100 μl of the supernatant was injected into a 96-well microplate to measure the β-hexosaminidase activity of the whole granule extract.
Each well of the 96-well microplate injected with any of the supernatant from the wells with the test samples, the supernatant from the wells without IgE sensitization or the whole granule extract described above was admixed with 50 μl of citrate buffer (pH 4.5) containing 1 mM 4-nitrophenyl-N-acetyl-β-glucosaminide (PNAG) as substrate, kept at 37° C. for 1 hour, and then the reaction was stopped by adding 50 μl of 0.1 M sodium carbonate (pH 10.5). […]

[1] = system: Mouse melanoma cell line B16; assay: Melanin synthesis in B16 cells; type: cell-based; conditions: 5 days, per mg protein versus control
Protocol: As control, a system with no test sample was provided. […] The amount of protein was measured by conventional Bradfordmethod and the amount of melanin per 1 mg of protein was calculated. The amount of melanin (%) was calculated according to Formula 4, and the living cell rate (%) was calculated according to Formula 5.
As control, a system with no test sample was provided. […] The amount of protein was measured by conventional Bradford method and the amount of melanin per 1 mg of protein was calculated. The amount of melanin (%) was calculated according to Formula 4.

RAW264.7 cells = assay: PGE2 production by macrophage RAW264.7, PGE2-EIA kit; type: cell-based, mouse; conditions: LPS + IFN-γ, 2 days, relative level versus control
Description: RAW264.7 cells, a murine macrophage cell strain, were suspended in PRMI1640 medium supplied with 10% (v/v) fetal calf serum (hereinafter abbreviated as “FCS”) to give a cell suspension with a cell concentration of 1×10^6 cells/ml. […] The experimental system without the test samples described above was set as control. […] NO production, PGE2 production and macrophage growth are indicated as relative levels versus controls.

SMILES: Nc1cc2nc3ccccc3oc-2cc1=O [2-Aminophenoxazine-3-one, 2-aminophenoxazine-3-one]
- inhibition at 0.63 µM (RBL-2H3; Rattus norvegicus, RBL-2H3, 0.63 μM, read-out: Inhibition intensity of degranulation): -30 to 30%
- inhibition at 5 µM (RBL-2H3; Rattus norvegicus, RBL-2H3, 5 μM, read-out: Inhibition intensity of degranulation): 30 to 50%
- inhibition at 10 µM (RBL-2H3; Rattus norvegicus, RBL-2H3, 10 μM, read-out: Inhibition intensity of degranulation): ≥ 50%
- inhibition at 23 µM (RBL-2H3; Rattus norvegicus, RBL-2H3, 23 μM, read-out: Inhibition intensity of degranulation): ≥ 50%
- inhibition at 31.3 µM (RBL-2H3; Rattus norvegicus, RBL-2H3, 31.3 μM, read-out: Inhibition intensity of degranulation): ≥ 50%
- inhibition at 40 µM (RBL-2H3; Rattus norvegicus, RBL-2H3, 40 μM, read-out: Inhibition intensity of degranulation): ≥ 50%
- concentration at which inhibiting activity on degranulation was exerted (RBL-2H3; summary of Table 3): ≥ 5 µM
- Amount of melanin (%) ([1]; 0.5 μM): 74%
- Amount of melanin (%) ([1]; 1 μM): 69%
- Amount of melanin (%) ([1]; 2 μM): 61%
- PGE2 production (%) (RAW264.7 cells; 0.16 μM): 76%
- PGE2 production (%) (RAW264.7 cells; 0.31 μM): 45%
- PGE2 production (%) (RAW264.7 cells; 0.63 μM): 13%
- PGE2 production (%) (RAW264.7 cells; 1.3 μM): 6%
- PGE2 production (%) (RAW264.7 cells; 2.5 μM): 1%
- PGE2 production (%) (RAW264.7 cells; 5.0 μM): 3%
- PGE2 production (%) (RAW264.7 cells; 10 μM): 2%
